This note sets out measurements from ChEMBL document CHEMBL6087432, “Brominated chalcones as promising antileishmanial agents” (Bioorg Med Chem Lett, 2025).

The test system of series [1] is Leishmania amazonensis. Briefly: Antileishmanial activity against Leishmania amazonensis promastigotes assessed as inhibition of parasite viability measured after 24 hrs by resazurin based colorimetric assay. It is filed as functional, organism-based. In general terms: Resazurin is reduced to fluorescent resorufin, in cell work by metabolically active cells.
Series [2] is described as follows: Cytotoxicity against mouse L929 cells assessed as cell viability upto 50 uM measured after 24 hrs by MTT assay relative to control. It is filed as toxicity, cell-based. The settings on record: read-out: Activity. On the technique in general: Tetrazolium assays rely on reduction of a dye to a coloured formazan, in cell work by metabolically active cells.
Series [3] in a line: Cytotoxicity against mouse L929 cells assessed as cell viability at 100 uM measured after 24 hrs by MTT assay relative to control. The series is classed as toxicity, cell-based. The settings on record: read-out: Activity.
Series [4] concerns Leishmania amazonensis. Briefly: Antileishmanial activity against Leishmania amazonensis promastigotes assessed as inhibition of parasite viability at 50 uM measured after 24 hrs by resazurin based colorimetric assay relative to control. The series is classed as functional.

Structures are written as SMILES. pIC50: −log10 of the molar value. Some results are limits rather than exact numbers.

Broadly, the pIC50 is the negative decadic logarithm of the IC50, by convention in mol/L. What is called inhibition is the share of the control response that was lost under treatment.

In the case of `COc1cc(OC)c(OC)cc1/C=C/C(=O)c1ccc(Br)cc1`, the pIC50 in series [1] was 5.20. In addition, the viability at 24 h, 50 µM in series [2] is over 80%. Further, in series [3], the viability at 24 h, 100 µM was over 60%. Moreover, the inhibition at 50 µM in series [4] was found to be 98.2%.

For `CN(C)c1ccc(/C=C/C(=O)c2cccc(Br)c2)cc1`, the negative-log IC50 (pIC50) in series [1] is 4.97. In addition, the viability at 24 h, 50 µM in series [2] is over 80%. The viability at 24 h, 100 µM in series [3] was over 70%. Moreover, the inhibition at 50 µM in series [4] is 98.7%.

Regarding `O=C(/C=C/c1cccs1)c1ccc(Br)cc1`, the inhibition at 50 µM in series [4] came to 93.6%.

With `COc1ccc(/C=C/C(=O)c2cccc(Br)c2)cc1`, the inhibition at 50 µM in series [4] is 93%.

Turning to `COc1ccc(/C=C/C(=O)c2ccc(Br)cc2)cc1`, the inhibition at 50 µM in series [4] came to 80.7%.

On to `O=C(/C=C/c1ccccc1)c1cccc(Br)c1`, for which the negative-log IC50 (pIC50) in series [1] was 4.86. The viability at 24 h, 50 µM in series [2] is over 80%. Besides, the viability at 24 h, 100 µM in series [3] is over 60%. Further, in series [4], the inhibition at 50 µM worked out at 99.8%.

On to `CN(C)c1ccc(/C=C/C(=O)c2ccc(Br)cc2)cc1`, for which the inhibition at 50 µM in series [4] amounted to 91.2%.

In the case of `CSc1ccc(/C=C/C(=O)c2ccc(Br)cc2)cc1`, the inhibition at 50 µM in series [4] was determined as 39.3%.

Regarding `Cc1ccc(/C=C/C(=O)c2ccc(Br)cc2)cc1`, the inhibition at 50 µM in series [4] was 57%.

As for `O=C(/C=C/c1ccc2c(c1)OCO2)c1ccc(Br)cc1`, the inhibition at 50 µM in series [4] amounted to 87.5%.

`O=C(/C=C/c1cccc2ccccc12)c1ccc(Br)cc1`: in series [4], the inhibition at 50 µM stood at 83.9%.

Take `O=C(/C=C/c1ccc(OCc2ccccc2)cc1)c1cccc(Br)c1`: the inhibition at 50 µM in series [4] worked out at 95%.

With `O=C(/C=C/c1ccccc1F)c1ccc(Br)cc1`, the pIC50 in series [1] was 4.62. For the same compound, the viability at 24 h, 50 µM in series [2] is over 80%. The viability at 24 h, 100 µM in series [3] is over 60%. Further, the inhibition at 50 µM in series [4] amounted to 99.4%.

For `Cc1ccc(/C=C/C(=O)c2cccc(Br)c2)cc1`, the inhibition at 50 µM in series [4] came to 94.8%.

In the case of `O=C(/C=C/c1ccccc1F)c1cccc(Br)c1`, the inhibition at 50 µM in series [4] was 91.7%.

Take `O=C(/C=C/C=C/c1ccccc1)c1ccc(Br)cc1`: the inhibition at 50 µM in series [4] is 33.8%.

As for `O=C(/C=C/c1cccs1)c1cccc(Br)c1`, in series [4], the inhibition at 50 µM is 86.7%.

In the case of `O=C(/C=C/C=C/c1ccccc1)c1cccc(Br)c1`, the inhibition at 50 µM in series [4] worked out at 90.8%.

On to `O=C(/C=C/c1cccc2ccccc12)c1cccc(Br)c1`, for which the inhibition at 50 µM in series [4] was 90.8%.

With `O=C(/C=C/c1ccc(OCc2ccccc2)cc1)c1ccc(Br)cc1`, the inhibition at 50 µM in series [4] turned out to be 24.2%.

On to `CSc1ccc(/C=C/C(=O)c2cccc(Br)c2)cc1`, for which, in series [1], the negative-log IC50 (pIC50) was 4.94. For the same compound, the viability at 24 h, 50 µM in series [2] was over 80%. The viability at 24 h, 100 µM in series [3] is over 70%. Moreover, the inhibition at 50 µM in series [4] turned out to be 97.3%.

With `C[C@@H]1[C@H](O)[C@@H](C)/C=C/C=C/C=C/C=C/C=C/C=C/C=C/[C@H](O[C@@H]2O[C@H](C)[C@@H](O)[C@H](N)[C@@H]2O)C[C@@H]2O[C@](O)(C[C@@H](O)C[C@@H](O)[C@H](O)CC[C@@H](O)C[C@@H](O)CC(=O)O[C@H]1C)C[C@H](O)[C@H]2C(=O)O` [AMPHOTERICIN B], the negative logarithm of the IC50 (pIC50) in series [1] was 6.94.

Consider `O=C(/C=C/c1ccccc1)c1ccccc1` [CHALCONE], for which, in series [1], the pIC50 was 4.97. In addition, the inhibition at 50 µM in series [4] amounted to 90.1%.
